Like-named read-outs stand apart in the source and are kept apart here.

The values below come from publication PMC5599507 (Scientific Reports, 2017).

One data set concerns the target T1, NR1/NR2A NMDAR (Homo sapiens, UniProt Q05586+Q12879).
T1 construct: cDNAs for the GRIN1 (NM_007327), GRIN2A (NM_000833.3), GRIN2B (NM_000834.3) and Kir2.1 (NM_000891.2) proteins were purchased from GeneCopoeia; expressed in transfected cells; host or cells: HEK293 cells (ATCC) transduced with BacMam baculovirus (pFastBac-CMV-GW-DEST); virus made in Sf9
Briefly: NMDAR-mediated calcium flux assay, NR1/NR2A-transduced HEK293 cells. Format: cell-based. The note with it: for EC50: MDL105,519-protected cells after washout, read-out: EC50 of activation of NMDAR-mediated calcium flux; for effect on NMDAR activity at saturating concentrations of ligand: saturating concentrations of both ligands; for potentiation of NMDAR activity at submaximal ligand concentration: submaximal (EC30) D-serine or glutamate; for ligand-induced NMDAR-mediated calcium influx after protection with the compound and washout: cells cultured 16 h with compound, washed, stimulated with glycine/glutamate; for glutamate concentration dependence of inhibitor potency: CGP070667-protected cells.

In a further data set the test system is NR1/NR2A-H44A/E226A. Briefly: NMDAR-mediated calcium flux assay, NR1/NR2A-H44A/E226A mutant in HEK293 cells. The note with it: at the EC50 of D-serine.
Another data set deals with T2, NR1/NR2A-V783F (Homo sapiens, UniProt Q05586+Q12879, V783F).
T2 construct: cDNAs for the GRIN1 (NM_007327), GRIN2A (NM_000833.3), GRIN2B (NM_000834.3) and Kir2.1 (NM_000891.2) proteins were purchased from GeneCopoeia; expressed in transfected cells; host or cells: HEK293 cells transduced with BacMam baculovirus
The experiment in a line: NMDAR-mediated calcium flux assay, NR1/NR2A-V783F mutant in HEK293 cells. In kind it is cell-based. The note with it: MDL105,519-protected cells.

Another data set has as its target T3, NR1/NR2B NMDAR (Homo sapiens, UniProt Q05586+Q13224).
T3 construct: cDNAs for the GRIN1 (NM_007327), GRIN2A (NM_000833.3), GRIN2B (NM_000834.3) and Kir2.1 (NM_000891.2) proteins were purchased from GeneCopoeia; expressed in transfected cells; host or cells: HEK293 cells (ATCC) transduced with BacMam baculovirus (pFastBac-CMV-GW-DEST)
Briefly: NMDAR-mediated calcium flux assay, NR1/NR2B-transduced HEK293 cells. Format: cell-based.

Another data set relates to HEK293 cells. Briefly: Cell viability (CellTiterGlo) of HEK293 cells, toxicity of the compound itself. In kind it is cell-based, human. The note with it: 16 h treatment. The method, then:
(§1) Cell viability was assessed Cell Titer Glo (Promega) and measured on an Envision plate reader (PerkinElmer).

In data set [1] the test system is NR1/2A-transduced HEK293 cells. Briefly: Cell viability (CellTiterGlo) of NR1/2A-transduced HEK293 cells, protection from excitotoxicity. Format: cell-based, human. Here is the method:
as §1

[2] abbreviates: 16 h after transduction with concurrent treatment.
Where [3] appears, read: HEK293 cells after protection with MDL105,519, stimulation with EC80 of both ligands, mean, n > 3, n.d. = not detectable, read-out: IC50 NR2A.
Setting [4] is: HEK293 cells after protection with MDL105,519, stimulation with EC80 of both ligands, mean, n > 3, n.d. = not detectable, read-out: IC50 NR2B.

T3 sequence (Q13224 27-1484, other chains not shown): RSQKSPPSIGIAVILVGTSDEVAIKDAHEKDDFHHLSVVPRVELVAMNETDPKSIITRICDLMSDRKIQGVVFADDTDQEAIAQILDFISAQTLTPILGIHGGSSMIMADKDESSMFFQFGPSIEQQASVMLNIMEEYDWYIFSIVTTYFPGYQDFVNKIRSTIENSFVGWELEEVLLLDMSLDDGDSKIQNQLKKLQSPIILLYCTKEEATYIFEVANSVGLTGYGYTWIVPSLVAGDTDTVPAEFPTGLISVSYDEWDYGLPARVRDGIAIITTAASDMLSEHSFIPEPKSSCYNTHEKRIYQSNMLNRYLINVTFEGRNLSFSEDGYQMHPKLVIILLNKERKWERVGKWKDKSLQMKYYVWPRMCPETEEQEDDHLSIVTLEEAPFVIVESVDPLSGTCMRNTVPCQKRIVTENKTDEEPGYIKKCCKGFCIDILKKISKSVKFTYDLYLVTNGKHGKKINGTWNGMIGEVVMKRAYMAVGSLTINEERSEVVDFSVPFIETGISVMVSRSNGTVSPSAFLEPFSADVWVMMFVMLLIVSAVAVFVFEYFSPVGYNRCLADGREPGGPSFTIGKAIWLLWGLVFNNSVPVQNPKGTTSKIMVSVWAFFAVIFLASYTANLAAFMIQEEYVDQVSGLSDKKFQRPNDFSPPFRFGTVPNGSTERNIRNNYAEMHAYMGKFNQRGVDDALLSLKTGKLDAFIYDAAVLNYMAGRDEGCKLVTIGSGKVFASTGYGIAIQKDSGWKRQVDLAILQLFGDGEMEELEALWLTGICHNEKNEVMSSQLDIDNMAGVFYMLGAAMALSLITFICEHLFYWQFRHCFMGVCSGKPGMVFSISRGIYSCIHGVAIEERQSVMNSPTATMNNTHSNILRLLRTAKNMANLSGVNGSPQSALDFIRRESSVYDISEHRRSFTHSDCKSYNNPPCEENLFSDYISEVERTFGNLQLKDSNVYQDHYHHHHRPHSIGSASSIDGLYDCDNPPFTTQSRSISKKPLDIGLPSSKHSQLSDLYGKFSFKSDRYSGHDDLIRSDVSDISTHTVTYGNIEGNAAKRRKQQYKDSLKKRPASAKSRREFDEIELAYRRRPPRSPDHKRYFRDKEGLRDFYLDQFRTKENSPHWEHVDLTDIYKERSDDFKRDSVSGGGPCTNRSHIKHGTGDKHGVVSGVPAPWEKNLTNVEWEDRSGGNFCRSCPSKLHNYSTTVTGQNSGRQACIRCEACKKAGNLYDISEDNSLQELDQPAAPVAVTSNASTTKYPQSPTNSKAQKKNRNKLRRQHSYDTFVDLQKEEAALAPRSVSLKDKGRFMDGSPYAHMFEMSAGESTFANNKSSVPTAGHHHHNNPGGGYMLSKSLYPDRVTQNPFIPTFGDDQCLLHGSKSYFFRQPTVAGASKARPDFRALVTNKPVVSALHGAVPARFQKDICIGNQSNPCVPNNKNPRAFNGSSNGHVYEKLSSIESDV
T1 sequence (Q12879 23-1464, other chains not shown): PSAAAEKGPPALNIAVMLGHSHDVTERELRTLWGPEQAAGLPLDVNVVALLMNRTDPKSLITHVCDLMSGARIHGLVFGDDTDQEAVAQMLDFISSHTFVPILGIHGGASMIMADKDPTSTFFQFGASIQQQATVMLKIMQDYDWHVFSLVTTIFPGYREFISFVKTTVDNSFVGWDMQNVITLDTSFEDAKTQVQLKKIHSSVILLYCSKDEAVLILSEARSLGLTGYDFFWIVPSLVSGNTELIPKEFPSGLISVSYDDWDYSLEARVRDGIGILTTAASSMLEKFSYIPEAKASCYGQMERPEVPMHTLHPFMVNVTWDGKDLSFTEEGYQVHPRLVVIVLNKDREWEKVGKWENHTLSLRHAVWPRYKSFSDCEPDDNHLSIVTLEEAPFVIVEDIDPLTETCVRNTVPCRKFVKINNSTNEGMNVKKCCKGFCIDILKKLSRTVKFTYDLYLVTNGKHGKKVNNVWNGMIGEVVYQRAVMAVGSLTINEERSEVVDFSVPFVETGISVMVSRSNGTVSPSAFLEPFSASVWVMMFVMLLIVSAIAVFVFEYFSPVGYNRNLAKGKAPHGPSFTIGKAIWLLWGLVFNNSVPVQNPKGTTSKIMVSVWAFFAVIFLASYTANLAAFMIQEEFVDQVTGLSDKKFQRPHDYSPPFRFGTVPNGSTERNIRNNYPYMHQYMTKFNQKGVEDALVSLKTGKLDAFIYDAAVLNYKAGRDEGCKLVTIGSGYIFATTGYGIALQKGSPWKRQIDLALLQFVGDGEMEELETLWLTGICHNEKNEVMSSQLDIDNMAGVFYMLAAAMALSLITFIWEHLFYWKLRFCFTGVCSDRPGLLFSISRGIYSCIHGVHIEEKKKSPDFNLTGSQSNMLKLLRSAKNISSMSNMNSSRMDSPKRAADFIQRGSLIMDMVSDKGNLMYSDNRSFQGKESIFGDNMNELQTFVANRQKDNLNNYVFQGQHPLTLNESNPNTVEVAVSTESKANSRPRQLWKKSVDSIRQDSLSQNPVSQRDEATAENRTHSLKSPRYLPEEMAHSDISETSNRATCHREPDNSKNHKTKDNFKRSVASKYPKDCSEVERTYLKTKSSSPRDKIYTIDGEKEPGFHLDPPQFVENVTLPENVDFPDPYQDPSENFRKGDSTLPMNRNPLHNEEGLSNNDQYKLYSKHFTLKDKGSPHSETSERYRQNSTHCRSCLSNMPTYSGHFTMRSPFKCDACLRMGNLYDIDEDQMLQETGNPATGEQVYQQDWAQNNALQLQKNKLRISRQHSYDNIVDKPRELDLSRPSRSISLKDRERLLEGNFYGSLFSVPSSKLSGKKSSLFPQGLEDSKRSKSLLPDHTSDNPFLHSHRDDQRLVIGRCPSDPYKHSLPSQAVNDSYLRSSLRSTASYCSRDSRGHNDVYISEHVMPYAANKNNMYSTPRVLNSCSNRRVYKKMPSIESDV
T2 sequence (Q12879 23-1464 V783F, other chains not shown): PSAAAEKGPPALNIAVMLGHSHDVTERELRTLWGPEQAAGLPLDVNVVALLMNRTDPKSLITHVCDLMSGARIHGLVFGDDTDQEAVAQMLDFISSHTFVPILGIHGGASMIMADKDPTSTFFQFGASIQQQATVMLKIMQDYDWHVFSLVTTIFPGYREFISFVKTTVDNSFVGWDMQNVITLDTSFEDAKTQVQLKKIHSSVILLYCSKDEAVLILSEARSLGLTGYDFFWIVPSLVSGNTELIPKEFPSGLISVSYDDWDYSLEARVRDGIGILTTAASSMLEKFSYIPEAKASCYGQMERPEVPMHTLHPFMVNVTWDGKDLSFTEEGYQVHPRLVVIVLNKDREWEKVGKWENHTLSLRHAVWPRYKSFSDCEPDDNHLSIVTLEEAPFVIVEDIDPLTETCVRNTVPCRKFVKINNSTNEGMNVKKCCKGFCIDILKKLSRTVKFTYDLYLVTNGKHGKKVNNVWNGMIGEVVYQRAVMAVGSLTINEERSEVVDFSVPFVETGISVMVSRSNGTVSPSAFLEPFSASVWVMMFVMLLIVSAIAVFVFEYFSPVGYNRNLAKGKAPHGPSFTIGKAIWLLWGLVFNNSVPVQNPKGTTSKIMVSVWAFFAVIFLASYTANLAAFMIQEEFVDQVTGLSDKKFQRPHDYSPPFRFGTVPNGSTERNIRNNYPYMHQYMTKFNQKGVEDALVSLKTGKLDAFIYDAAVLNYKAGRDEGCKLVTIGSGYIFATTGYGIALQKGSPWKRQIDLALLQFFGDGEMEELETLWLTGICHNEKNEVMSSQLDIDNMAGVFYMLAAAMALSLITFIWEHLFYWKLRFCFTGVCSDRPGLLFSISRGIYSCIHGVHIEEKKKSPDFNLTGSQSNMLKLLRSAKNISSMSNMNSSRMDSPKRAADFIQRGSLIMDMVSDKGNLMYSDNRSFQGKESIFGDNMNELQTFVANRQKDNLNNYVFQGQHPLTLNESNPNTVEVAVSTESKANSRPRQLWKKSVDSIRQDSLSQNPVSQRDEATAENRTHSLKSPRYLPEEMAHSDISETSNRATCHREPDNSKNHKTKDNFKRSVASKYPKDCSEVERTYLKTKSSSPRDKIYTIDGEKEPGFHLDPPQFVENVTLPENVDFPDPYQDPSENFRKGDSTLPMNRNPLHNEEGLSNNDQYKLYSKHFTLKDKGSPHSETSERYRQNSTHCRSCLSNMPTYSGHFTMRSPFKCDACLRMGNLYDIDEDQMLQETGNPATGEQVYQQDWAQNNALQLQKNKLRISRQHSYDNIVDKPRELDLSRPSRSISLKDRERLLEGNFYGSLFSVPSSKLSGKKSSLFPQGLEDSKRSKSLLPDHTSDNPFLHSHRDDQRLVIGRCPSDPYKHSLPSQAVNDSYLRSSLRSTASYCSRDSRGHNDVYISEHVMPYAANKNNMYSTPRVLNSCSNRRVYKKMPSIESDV
Method for NR1/NR2A NMDAR: (§2) 10^4 cells per 384-well were infected with baculovirus in suspension, seeded into a clear bottom, poly-D-lysine treated 384-well plate (Corning) and treated with the indicated concentrations of protection compound (100 µM MDL105,519 or 5 µM CGP070667). 16 h after transduction, cell medium was replaced with calcium6-dye (Molecular Devices, R8192) in incubation buffer (HBSS pH 7.5, 20 mM HEPES, 1 mM MgCl2, 1 mM probenecid) and cells were incubated at 37 °C for 2 h. […] In the beginning of each experiment baseline fluorescence (F0) was measure for 5–30 sec. For compound treatment, 10 µl of a 4× stock of compound diluted in assay buffer was added on the FDSS (speed 20 µl/s, tip height 1.8 mm) fluorescence was measured for 5 min (interval 1) before adding 10 µl of a 5× stock of ligand diluted in assay buffer and measurement of fluorescence for 5 min (interval 2). For single addition experiments, the maximal fluorescence ratio was calculated by dividing the maximal fluorescence in interval 1 by the average baseline fluorescence (Fmax/F0). For experiments requiring two additions, the integral of the fluorescence ratio was determined by calculating the area under the curve of the fluorescent ratios in interval 2. Data was analyzed as indicated and was normalized to controls located on the same plate.
Method for NR1/NR2A-H44A/E226A: as §2
Method for NR1/NR2A-V783F: 16 h after transduction, cell medium was replaced with calcium6-dye (Molecular Devices, R8192) in incubation buffer (HBSS pH 7.5, 20 mM HEPES, 1 mM MgCl2, 1 mM probenecid) and cells were incubated at 37 °C for 2 h. Before measurement, the dye-solution was replaced with 30 ul assay buffer (HBSS pH 7.5, 20 mM HEPES, 1.8 mM CaCl2). Cells were allowed to rest for 10 min at room temperature before measuring calcium flux on a FDSS7000 plate reader (Hamamatsu) with the following settings: 1 sec measurement interval, 200 ms exposure time, 2 × 2 binning, Ex480 nm:Em540 nm, sensitivity 1–3. In the beginning of each experiment baseline fluorescence (F0) was measure for 5–30 sec. For compound treatment, 10 µl of a 4× stock of compound diluted in assay buffer was added on the FDSS (speed 20 µl/s, tip height 1.8 mm) fluorescence was measured for 5 min (interval 1) before adding 10 µl of a 5× stock of ligand diluted in assay buffer and measurement of fluorescence for 5 min (interval 2). For single addition experiments, the maximal fluorescence ratio was calculated by dividing the maximal fluorescence in interval 1 by the average baseline fluorescence (Fmax/F0). For experiments requiring two additions, the integral of the fluorescence ratio was determined by calculating the area under the curve of the fluorescent ratios in interval 2. […]
Method for NR1/NR2B NMDAR: 16 h after transduction, cell medium was replaced with calcium6-dye (Molecular Devices, R8192) in incubation buffer (HBSS pH 7.5, 20 mM HEPES, 1 mM MgCl2, 1 mM probenecid) and cells were incubated at 37 °C for 2 h. Before measurement, the dye-solution was replaced with 30 ul assay buffer (HBSS pH 7.5, 20 mM HEPES, 1.8 mM CaCl2). Cells were allowed to rest for 10 min at room temperature before measuring calcium flux on a FDSS7000 plate reader (Hamamatsu) with the following settings: 1 sec measurement interval, 200 ms exposure time, 2 × 2 binning, Ex480 nm:Em540 nm, sensitivity 1–3. In the beginning of each experiment baseline fluorescence (F0) was measure for 5–30 sec. For compound treatment, 10 µl of a 4× stock of compound diluted in assay buffer was added on the FDSS (speed 20 µl/s, tip height 1.8 mm) fluorescence was measured for 5 min (interval 1) before adding 10 µl of a 5× stock of ligand diluted in assay buffer and measurement of fluorescence for 5 min (interval 2). For single addition experiments, the maximal fluorescence ratio was calculated by dividing the maximal fluorescence in interval 1 by the average baseline fluorescence (Fmax/F0). For experiments requiring two additions, the integral of the fluorescence ratio was determined by calculating the area under the curve of the fluorescent ratios in interval 2. Data was analyzed as indicated and was normalized to controls located on the same plate.

As for `N[C@H](CO)C(=O)O` [D-serine], the EC50 at NR1/NR2A NMDAR was around 9000 nM.

Take `O=C(O)CN(CCN(CC(=O)O)CC(=O)O)CC(=O)O` [EDTA]: in the data set with NR1/NR2A-H44A/E226A (compared to wildtype NR2A), the “sensitivity of the double mutant to activation” value is reported as “less sensitive”.

`CCN(Cc1cc(=O)n2c3c(sc2n1)CCC3)c1ccc(F)cc1` [GNE-8324]: the “sensitivity of NR1/2A-V783F to the compound” value at NR1/NR2A-V783F is given as “complete loss of sensitivity”. On NR1/NR2A NMDAR, the “effect on NMDAR activity at saturating concentrations of ligand” value is recorded as “enhanced NMDAR activity” and the “potentiation of NMDAR activity at submaximal ligand concentration” value is reported as “concentration-dependent potentiation”. Besides, the “effect on NR1/2B-mediated calcium flux” value at NR1/NR2B NMDAR is “no effect”.

Regarding `CNC1(c2ccccc2Cl)CCCCC1=O` (stereo not shown) [Ketamine], in the data set on HEK293 cells, the “toxic effect on HEK293 cells” value is listed as “dose-dependent toxic effect”. Besides, on NR1/NR2A NMDAR, the IC50 turned out to be 23000 nM; the “ligand-induced NMDAR-mediated calcium influx after protection with the compound and washout” value is “did not observe significant ligand-induced NMDAR-mediated calcium influx”. Further, the “protection from NMDAR-mediated excitotoxicity (cell viability)” value (from here on “protection … (cell viability)”) in data set [1] (setting [2]) is recorded as “could be rescued”. Moreover, on NR1/NR2B NMDAR, the IC50 came to 12100 nM.

Consider `O=c1[nH]c2cc(Cl)ccc2c(O)c1-c1cccc(Oc2ccccc2)c1` [L701,324], for which the IC50 at NR1/NR2A NMDAR (setting [3]) was 1450 nM; at NR1/NR2B NMDAR (setting [4]), 1910 nM.

In the case of `N[C@@H](CO)C(=O)O` [L-serine], the “right shift in potency as compared to D-serine” value on NR1/NR2A NMDAR (MDL105,519-protected cells, saturating glutamate) is ~ 200 fold.

For `O=C(O)C(=Cc1c(C(=O)O)[nH]c2cc(Cl)cc(Cl)c12)c1ccccc1` [MDL105,519], at NR1/NR2A NMDAR, the “glutamate concentration dependence of inhibitor potency” value was “only minor effects”; the “ligand-induced NMDAR-mediated calcium influx after protection with the compound and washout” value is given as “enabled the largest dynamic range of NMDAR-activity”. On NR1/NR2A NMDAR (setting [3]), the IC50 came to 620 nM. Besides, the “shift of inhibitor dose response curve, EC100 vs EC20 of D-serine” value at NR1/NR2A NMDAR (MDL105,519-protected cells) was “right shift”. Also, the “protection … (cell viability)” value in data set [1] (setting [2]) is reported as “dose-dependent rescue of cell viability”. The “cell viability compared to non-transduced cells” value in data set [1] (overnight (16 h) treatment of NR1/2A-transduced cells, screen of 120 compounds) is recorded as above 70%. For the same compound, the IC50 on NR1/NR2B NMDAR (setting [4]) came out at 1650 nM.

Turning to `C[C@]12N[C@H](Cc3ccccc31)c1ccccc12` [MK801], at NR1/NR2A NMDAR, the “glutamate concentration dependence of inhibitor potency” value is listed as “only minor effects”; the “ligand-induced NMDAR-mediated calcium influx after protection with the compound and washout” value is on record as “did not observe significant ligand-induced NMDAR-mediated calcium influx”. Also, the “change of signal on NMDAR block in the absence of ligand (basal activity)” value at NR1/NR2A NMDAR (after washout of MDL105,519, no ligand) was “only a weak decrease of signal”. Besides, the “protection … (cell viability)” value in data set [1] (setting [2]) is recorded as “could be rescued”. Moreover, the IC50 at NR1/NR2B NMDAR (setting [4]) turned out to be 150 nM.

`[Cl-].[Cl-].[Mg+2]` [MgCl2, magnesium chloride]: the “sensitivity of NR1/NR2A to inhibition with increasing Kir2.1 baculovirus titer” value at NR1/NR2A NMDAR (co-transduction with Kir2.1 (KCNJ2), MDL105,519-protected cells) is recorded as “increased sensitivity”. In addition, in data set [1] (setting [2]), the “concentration giving partial rescue of cell viability” value is listed as above 10 mM and the “protection … (cell viability)” value is recorded as “partial rescue”.

`C[C@H](NC(c1cccc2[nH]c(=O)c(=O)[nH]c12)P(=O)(O)O)c1ccc(Br)cc1` (stereo partly shown) [NVP-AAM077]: the values for the IC50 on NR1/NR2A NMDAR (setting [3]) and at NR1/NR2B NMDAR (setting [4]) were 2460 nM and 11900 nM, respectively.

Turning to `C[C@@H](CN1CCC(Cc2ccccc2)CC1)[C@@H](O)c1ccc(O)cc1` [RO25-6981], on NR1/NR2B NMDAR (setting [4]), the IC50 is 100 nM.

Regarding `NCC(=O)O` [glycine], the “sensitivity of NMDAR-mediated calcium flux to ligand” value at NR1/NR2A NMDAR (CGP070667-protected cells after washout) is on record as “insensitivity”. For the same compound, the EC50 on NR1/NR2A NMDAR was around 12000 nM.

For the compound `[Zn+2]` [zinc], the IC50 on NR1/NR2A NMDAR (MDL105,519-protected cells, at the EC50 of D-serine, read-out: IC50 for zinc, wildtype receptor) was around 100 nM; in the data set with NR1/NR2A-H44A/E226A (read-out: IC50 for zinc, NR2A-H44A/E226A double mutant, MDL105,519-protected cells), above 10000 nM.

As to pregnenolone sulfate [PS], the “effect on NMDAR activity at saturating concentrations of ligand” value at NR1/NR2A NMDAR and at NR1/NR2B NMDAR (saturating concentrations of both ligands) was “supramaximal activation” each time. Moreover, the “potentiation of NMDAR activity at submaximal ligand concentration” value on NR1/NR2A NMDAR and at NR1/NR2B NMDAR (submaximal (EC30) D-serine or glutamate) was “enhanced NMDAR activity” each time.
